This note sets out measurements from patent publication US12565495B2, “VMAT2 inhibitor and preparation method therefor and application thereof” (Luye Innomind Pharma Shijiazhuang Co., Ltd., priority 2019, dated 2026).

SMILES strings stand for the structures.

One data set deals with VMAT2 (Rattus norvegicus (Rat), UniProt Q01827). The experiment in a line: Radioactivity detection of binding to VMAT2 in rats ([3H]DHTBZ binding assay, rat cerebral vesicle membrane). Particulars: Table 25. As for the experimental part: I. Radioactivity Detection of Activity of Compounds Binding to VMAT2 in Rats (Binding assay)
To determine the IC50 and Ki values of the binding of various compounds to VMAT2 in rats and to evaluate the affinity of compounds for VMAT2.
Male Wistar rat, weighing 175±25 g, was selected and the whole brain (without the cerebellum) of the rat was isolated surgically and placed into a pre-chilled sucrose solution (20 mL, 0.32 M) and homogenized by a Teflon pestle homogenizer. […] The supernatant was discarded and the precipitate obtained was placed in ice cold MilliQ water (18 mL, Millipore Corporation, Billerica, MA), incubated for 5 minutes and subjected to osmotic shock to shatter cell membrane. Then osmolarity was restored by addition of HEPES solution (25 mM, 2 mL) and potassium tartrate solution (100 mM, 2 mL). The resulting sample was centrifuged at 20,000 g for 20 min at 4° C. The supernatant was aspirated and MgSO4 solution (1 mM, 20 μL) was added. […] The precipitate was collected and resuspended in ice cold assay buffer (25 mM HEPES, 100 mM potassium tartrate, 5 mM MgSO4, 0.1 mM EDTA and 0.05 mM EGTA, pH 7.5) to obtain a vesicle suspension.
After completion of the incubation, the reaction solution was filtered (bacteria filter and collector, PerkinElmer Life and Analytical Sciences) to a filter plate and subsequently, the filter membrane was washed with 350 μL of ice-cold buffer (25 mM HEPES, 100 mM potassium tartrate, 5 mM MgSO4 and 10 mM NaCl, pH 7.5) five times. The filter plate was dried and had the bottom sealed. 40 μL of scintillation cocktail (MicroScint 20; PerkinElmer Life and Analytical Sciences) was added to each well. Radioactivity on the filter was determined by liquid scintillation spectrometry (TopCount NXT; PerkinElmer Life and Analytical Sciences).
Based on the radioactivity assay results above, IC50 and Ki were calculated. IC50 was calculated by a non-linear, least squares regression analysis using MathIQ™ (ID Business Solutions Ltd., UK). Ki values were calculated using the equation of Cheng and Prusoff (Cheng, Y., Prusoff, W. H., Biochem. Pharmacol. 22:3099-3108, 1973). Ki values were calculated in combination with the IC50 of the test compound and the historical KD in the radioactivity detection method of Eurofins Panlabs company.

Data set [1] in a line: Liver microsome incubation test, rat. The settings on record: rat liver microsomes 0.5 mg/mL, 1 μM compound, NADPH, 37° C.
Protocol: (§1) Incubation: 100 μL of an incubation system included: liver microsomes (human, rat, mouse, monkey or dog) (0.5 mg/mL), sodium phosphate buffer (100 mM), and magnesium chloride (10 mM). […] After pre-incubation of the systems at 37° C. for 3 min, NADPH was added to a final concentration of 1 mM. The reaction was started. […] Each sample at each time point was processed parallelly in duplicate and a blank control group without coenzymes and a positive control group were provided.
(§2) A certain amount of internal standard was added to the sample following termination with acetonitrile. […] Relative remaining amount was taken as the ordinate and time as the abscissa.
In data set [2] the test system is SD rat autonomous activity. The experiment in a line: SD rat autonomous activity model (total movement distance in open field, TopScan). In kind it is in vivo. Particulars: SD rats, 0 hr to 1 hr post-dose. How it is done:
SD rat autonomous activity models were used in the study.
• 2.1 Test animals: 32 SD rats, SPF-grade, Male, 5-7 weeks old, weighing: 200-220 g, pre-accustomed for at least 1 week before the test.
Preparation method: An appropriate amount of the medicament was weighed and dissolved with a small amount of DMSO (not more than 1% of the total volume). Then, 20% Solutol was added to obtain the desired medicament concentration and the final concentration of DMSO was <4%.
The rats were put into the detection box, pre-accustomed for 10 min and fasted. Animal grouping and dosing information were detailed in Table 35.
On the day of the test, the animals were accustomed for at least 1 hr in the test room. Rats in each group were given a vehicle or corresponding medicaments, respectively according to the doses in Table 35 in one single gavage and then put into the activity room. […] Rats of a same group should not be put in one same room among the eight activity rooms, and there was at least one rat from the control group in each round of test to prevent mutual interference. At the end of each round of test, the feces were swept out and the activity rooms were cleaned to avoid the influence of irrelevant interfering factors (odor, etc.) on the exercise activities of the rats.
The total movement distances of rats from 2 hr to 3 hr post-dose were recorded and analyzed by using a TopScan monitoring system and the reduction rate (RR) of the total movement distance was calculated, wherein RR=(Control group movement distance-Administration group movement distance)/Control group movement distance*100%.
Test data were expressed as mean±standard error of the mean (MEAN±SEM). Difference between various groups at each time point was compared by using PASW Statistics 18.0 software with one-way analysis of variance (ANOVA).
Animal grouping and dosing information were detailed in […].

A short description of data set [3]: Excipient compatibility test (purity after storage with excipients). In kind it is physicochemical. The settings on record: for purity change after mixing with excipients: mixed with excipients 1:20, placed open at 60° C. for 5 days. How it is done:
Then the mixture was placed open at 60° C. for 5 days.
Purity detection method: about 35 mg of the sample was weighed precisely and placed in a 25 ml measuring flask. 15 ml of acetonitrile was added to dissolve the sample by ultrasound. Water was used to dilute to a given mark and the mixture was shaken uniformly and used as sample solution to be tested. Determination was carried out based on high performance liquid chromatography, octadecyl silane bonded silica gel was used as the filler (Inerstil ODS-3V, 250 mm×4.6 mm, 5 μm); 10 mmol/L diammonium hydrogen phosphate solution (adjusting the pH value to 6.95±0.05)-acetonitrile (80:20) was used as mobile phase A, acetonitrile was used as mobile phase B, and gradient elution was carried out according to Table 39. The detection wavelength was 282 nm; the column temperature was 35° C.; and the flow rate was 1.0 ml/min. 10 μl of the sample solution to be tested was precisely measured and injected into the liquid chromatograph, and the chromatogram was recorded. Calculation was carried out by the peak area normalization method.

A short description of data set [4]: Pharmacokinetic test in SD rats, gavage 10 μmol/kg (plasma concentration-time curves). Particulars: male SD rats, FIG. 9. In kind it is in vivo. How it is done: Method of Pharmacokinetic Test in SD Rats:
The dosage of administration was 10 μmol/kg. At 0.25, 0.5, 1, 2, 3, 4, 6, 8 and 12 h post-dose, blood samples (about 0.2 mL/time point/rat) were collected to heparinized tubes.

Data set [5] can be described thus: Distribution test in SD rat brain tissue, gavage 12 μmol/kg (brain concentration, brain/plasma ratio). Particulars: SD rats, gavage 12 μmol/kg of compound 21 or VBZ, 2 h post-dose; compound 21 vs VBZ, metabolite compound 11 vs DHTBZ. The class given is in vivo. As for the experimental part:
After the rats were sacrificed, the brain tissues were extracted, washed with normal saline and dried with filter paper. Cerebral vessels were stripped and the remaining brain tissues were weighed and stored at −20° C.

Data set [6] can be described thus: Liver microsome incubation test, dog. In kind it is in vitro ADME. Particulars: dog liver microsomes 0.5 mg/mL, 1 μM compound, NADPH, 37° C.
Protocol: as §1, §2
The nature of data set [7]: Liver microsome incubation test, human. Particulars: human liver microsomes 0.5 mg/mL, 1 μM compound, NADPH, 37° C.
Protocol: as §1, §2
Data set [8] can be described thus: Pharmacokinetic / bioavailability test in SD rats (gavage 5 μmol/kg, intravenous 2 μmol/kg). The settings on record: male, rat, plasma, 2 umol/kg.
Protocol: At each corresponding time point post-dose, blood samples (about 1 ml/time point/rat) were collected to heparinized tubes. Within half an hour after collection, the samples were centrifuged to separate the plasma, which was transferred to 1.5 ml EP tubes and stored at −20° C. for detection.
Method for precipitating proteins was used for the pretreatment of the samples: protein precipitation was carried out in 25 μL of plasma by using 200 μL of acetonitrile containing internal standard. After high-speed centrifugation, the supernatant was diluted with water (1:1 (V/V)) and injected for analysis.
The nature of data set [9]: 11-P4S crystal forms A/D/E suspension competition test. The class given is physicochemical. The settings on record: suspension in IPA / IPAc, room temperature to 50° C., 17 hours. As for the experimental part:
Then XRPD was carried out on the solid.

Chain of VMAT2 (Q01827 whole entry): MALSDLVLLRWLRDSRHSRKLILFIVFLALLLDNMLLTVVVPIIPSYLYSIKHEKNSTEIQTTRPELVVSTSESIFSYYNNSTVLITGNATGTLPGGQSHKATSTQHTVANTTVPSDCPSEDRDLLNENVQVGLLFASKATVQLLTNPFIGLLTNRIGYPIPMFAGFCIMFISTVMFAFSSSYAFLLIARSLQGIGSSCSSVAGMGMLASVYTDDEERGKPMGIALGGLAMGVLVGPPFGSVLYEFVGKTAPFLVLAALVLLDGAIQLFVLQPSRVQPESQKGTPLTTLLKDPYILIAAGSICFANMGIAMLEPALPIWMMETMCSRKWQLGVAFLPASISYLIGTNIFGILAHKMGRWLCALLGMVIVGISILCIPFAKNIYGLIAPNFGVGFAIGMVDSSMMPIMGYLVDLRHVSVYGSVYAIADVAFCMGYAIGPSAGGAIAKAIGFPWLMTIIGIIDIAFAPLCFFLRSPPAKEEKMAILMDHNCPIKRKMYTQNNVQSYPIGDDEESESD

As to `CCCOc1cc2c(cc1OCC)CCN1CC(CC(C)C)C(O)CC21` (centres unmarked) [Comparative Example 41, reference compound], the 50% inhibitory concentration (IC50) on VMAT2 came out at 280 nM.

As for `COc1cc2c(cc1OCCCF)CCN1CC(CC(C)C)C(O)CC21` (centres unmarked) [Comparative Example 44, reference compound], the “Elimination half-life (t1/2) in liver microsomes” value (“Elimination half-life” for short) in data set [1] was “~ (the data showed that the metabolism was stable and the rate of the original compound left was greater than 80% after an incubation of 60 min.)”.

With `COc1cc2c(cc1OCC(F)(F)F)CCN1C[C@@H](CC(C)C)[C@H](O)C[C@H]21` [Compound 11-P4], the “movement distance (rat autonomous activity)” value in data set [2] (1.25 μmol/kg) is 9313±1213 mm; in [2] (2.5 μmol/kg), 5959±1615 mm; in data set [2] (5.0 μmol/kg), 1216±429.9 mm; in [2] (10.0 μmol/kg), 1355±524.1 mm. In addition, in [3], the “purity change after mixing with excipients” value is given as “purity dropped obviously”.

As to `COc1cc2c(cc1OCC(F)(F)F)CCN1CC(CC(C)C)C(O)CC21` (centres unmarked) [Compound 11], the “exposure compared to Comparative Example 44 compound and DHTBZ” value in [4] is on record as “higher exposure”. The “concentration in brain tissue compared to VBZ and DHTBZ” value in data set [5] was “significantly higher”. For the same molecule, the “Elimination half-life” value in data set [6] is “~ (the data showed that the metabolism was stable and the rate of the original compound left was greater than 80% after an incubation of 60 min.)”; in [1], “~ (the data showed that the metabolism was stable and the rate of the original compound left was greater than 80% after an incubation of 60 min.)”.

As to `COc1cc2c(cc1OCC(F)F)CCN1CC(CC(C)C)C(O)CC21` (centres unmarked) [Compound 12], the “Elimination half-life” value in data set [6] was “~ (the data showed that the metabolism was stable and the rate of the original compound left was greater than 80% after an incubation of 60 min.)”; in data set [1], “~ (the data showed that the metabolism was stable and the rate of the original compound left was greater than 80% after an incubation of 60 min.)”; in data set [7] it was “~ (the data showed that the metabolism was stable and the rate of the original compound left was greater than 80% after an incubation of 60 min.)”.

On to `COc1cc2c(cc1OCCCC(F)(F)F)CCN1CC(CC(C)C)C(O)CC21` (centres unmarked) [Compound 13], for which the “Elimination half-life” value in data set [6] was “~ (the data showed that the metabolism was stable and the rate of the original compound left was greater than 80% after an incubation of 60 min.)”; in [1], “~ (the data showed that the metabolism was stable and the rate of the original compound left was greater than 80% after an incubation of 60 min.)”.

Turning to `CCOc1cc2c(cc1OC)C1CC(O)C(CC(C)C)CN1CC2` (centres unmarked) [Compound 16], at VMAT2, the IC50 came out at 12.9 nM. The “Elimination half-life” value in data set [1] was “~ (the data showed that the metabolism was stable and the rate of the original compound left was greater than 80% after an incubation of 60 min.)”.

On to `COCCCOc1cc2c(cc1OC)C1CC(O)C(CC(C)C)CN1CC2` (centres unmarked) [Compound 17], for which the IC50 at VMAT2 was 58 nM.

As to `CCCOc1cc2c(cc1OC)C1CC(O)C(CC(C)C)CN1CC2` (centres unmarked) [Compound 20], the IC50 on VMAT2 turned out to be 4.9 nM.

`COc1cc2c(cc1OCC(F)(F)F)CCN1CC(CC(C)C)C(OC(=O)[C@@H](N)C(C)C)CC21` (some centres unmarked) [Compound 21]: in [5], the “concentration in brain tissue compared to VBZ and DHTBZ” value is on record as “significantly higher”.

Take `COc1cc2c(cc1OC)[C@H]1C[C@@H](OC(=O)[C@@H](N)C(C)C)[C@H](CC(C)C)CN1CC2` [VBZ, valbenazine]: the half-life in data set [8] is 1.67 h.

On to `COc1cc2c(cc1OCC(F)(F)F)CCN1C[C@@H](CC(C)C)[C@H](O)C[C@H]21.Cc1ccc(S(=O)(=O)O)cc1` [crystal form A of 11-P4S], for which the purity in data set [3] (API alone, 0 d) turned out to be 99.70%; in data set [3] (API alone, high temperature (60° C.), open, 5 d) it was 99.69%; in [3] (mixed with MCC 1:20, high temperature (60° C.), open, 5 d), 99.26%; in data set [3] (mixed with magnesium stearate 1:20, high temperature (60° C.), open, 5 d) it was 99.68%; in data set [3] (mixed with talc powder 1:20, high temperature (60° C.), open, 5 d), 99.68%. The “purity change after mixing with excipients” value in data set [3] was “no obvious change”. Moreover, the “thermodynamic stability of crystal form” value in data set [9] is reported as “most thermodynamically stable crystal form”.
